Among the data in the SangsterLogP compilation are logP and logD values, retold here.

A short description of data set [1]: method code SF-AS, from Woolston, C.; Lee, J.; Swinbourne, F. (1994). Partition coefficients and chromatographic parameters of some substituted 1,3-thiazolidin-4-ones. Ind. J. Chem., Sect. B, 33(6)590-592. The note with it: pH 7.4.

Broadly, the logP is a log measure of how a compound divides between an organic and an aqueous phase. A higher logP goes with a more lipophilic compound. Take `O=C1CSC(c2cccc([N+](=O)[O-])c2)N1c1ccccc1` (stereo not drawn): the logP was 1.73. As for `O=C1CSC(c2cccc(Br)c2)N1c1ccccc1` (stereo not drawn), the logP was found to be 2.44. For `O=C1CS(=O)C(c2ccccc2)N1c1ccccc1` (stereo not drawn), the logP came to 1.07. The compound `Cc1ccc(C2SCC(=O)N2c2ccccc2)cc1` (stereo not drawn) came in with a logP of 2.48. In turn, `COc1ccc(N2C(=O)CSC2c2ccccc2)cc1` (stereo not drawn) returned a logP of 1.92. The compound `Cc1cccc(C2SCC(=O)N2c2ccccc2)c1` (stereo not drawn) returned a logP of 2.3.

Compound `O=C1CSC(c2ccccc2)N1c1ccc(Br)cc1` (stereo not drawn) came in with a logP of 2.56. As to `O=C1CSC(c2ccccc2)N1c1cccc(Br)c1` (stereo not drawn), the logP came out at 2.58.

Consider `O=C1CSC(c2cccc(F)c2)N1c1ccccc1` (stereo not drawn), for which the logP turned out to be 1.9. Take `N#Cc1ccc(C2SCC(=O)N2c2ccccc2)cc1` (stereo not drawn): the logP was 1.32. Regarding `O=C1CS(=O)C(c2ccccc2)N1c1cccc([N+](=O)[O-])c1` (stereo not drawn), the logP is 1.09. The compound `O=C1CSC(c2ccc([N+](=O)[O-])cc2)N1c1ccccc1` (stereo not drawn) returned a logP of 1.75. Turning to `Cc1ccc(N2C(=O)CSC2c2ccccc2)cc1` (stereo not drawn), the logP is 2.32. As to `O=C1CS(=O)C(c2cccc(Br)c2)N1c1ccccc1` (stereo not drawn), the logP is 1.63.

Turning to `O=C1CS(=O)(=O)C(c2cccc(Br)c2)N1c1ccccc1` (stereo not drawn), the logP stood at 1.63. With `O=C1CSC(c2ccccc2)N1c1ccccc1` (stereo not drawn), the lipophilicity (logP) is 1.88. Regarding `O=C1CSC(c2ccc(Cl)cc2)N1c1ccccc1` (stereo not drawn), the logP was 2.52. Still for that read-out and setting: to `COc1cccc(C2SCC(=O)N2c2ccccc2)c1` (stereo not drawn) belongs 1.96; to `O=C1CSC(c2ccccc2)N1c1ccc(Cl)cc1` (stereo not drawn), 2.42. The logD is lipophilicity at a set pH, counting ionised and neutral species. Low values mean lower lipophilicity, high ones higher lipophilicity. Compound `O=C1CS(=O)(=O)C(c2ccccc2)N1c1ccccc1` (stereo not drawn) showed a logD in data set [1] of 1.23. Turning to `O=C1CSC(c2ccccc2)N1c1cccc([N+](=O)[O-])c1` (stereo not drawn), the logP was found to be 1.9. Same read-out and setting: to `O=C1CS(=O)(=O)C(c2ccccc2)N1c1cccc([N+](=O)[O-])c1` (stereo not drawn) belongs 1.09.

`O=C1CSC(c2ccccc2)N1c1ccc(O)cc1` (stereo not drawn) gave a logP of 1.29. On the same count and under the same terms, to `O=C1CSC(c2ccc(Br)cc2)N1c1ccccc1` (stereo not drawn) belongs 2.66; to `COc1ccc(N2C(=O)CS(=O)C2c2ccccc2)cc1` (stereo not drawn), 1.07; to `O=C1CSC(c2cccc(Cl)c2)N1c1ccccc1` (stereo not drawn), 2.32. `COc1ccc(C2SCC(=O)N2c2ccccc2)cc1` (stereo not drawn): the logP was 1.97. For `COc1ccc(N2C(=O)CS(=O)(=O)C2c2ccccc2)cc1` (stereo not drawn), the logP came out at 1.09.
